Biological target: Acetylcholinesterase (Homo sapiens, UniProt P22303)
Test: Inhibition of human erythrocyte AChE using acetylthiocholine as substrate assessed as substrate hydrolysis preincubated for 20 mins followed by substrate addition measured after 30 mins by Ellman's assay; call rule not given here

Chain of Acetylcholinesterase (P22303 whole entry): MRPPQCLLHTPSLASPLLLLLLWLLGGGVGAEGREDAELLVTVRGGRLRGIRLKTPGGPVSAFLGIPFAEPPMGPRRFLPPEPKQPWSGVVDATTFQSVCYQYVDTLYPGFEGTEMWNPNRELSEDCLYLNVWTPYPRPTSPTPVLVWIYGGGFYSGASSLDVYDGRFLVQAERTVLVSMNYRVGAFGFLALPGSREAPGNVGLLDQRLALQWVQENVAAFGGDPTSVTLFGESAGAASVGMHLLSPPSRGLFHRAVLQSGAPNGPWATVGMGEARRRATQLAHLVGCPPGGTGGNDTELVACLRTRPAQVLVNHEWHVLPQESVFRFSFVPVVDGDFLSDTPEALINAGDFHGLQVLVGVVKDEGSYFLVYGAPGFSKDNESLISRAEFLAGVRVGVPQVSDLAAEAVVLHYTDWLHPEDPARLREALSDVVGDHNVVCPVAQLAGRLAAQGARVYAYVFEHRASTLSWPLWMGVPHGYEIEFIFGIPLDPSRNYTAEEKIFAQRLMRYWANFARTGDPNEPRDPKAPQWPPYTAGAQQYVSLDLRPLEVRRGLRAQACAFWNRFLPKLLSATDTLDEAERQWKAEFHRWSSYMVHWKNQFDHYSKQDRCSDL

| Structure (SMILES) | IC50 | IC50 (read-out: IC50) |
| --- | --- | --- |
| CC(C)=CCC[C@]1(C)[C@@H](CC=C(C)C)C[C@@]2(CC=C(C)C)C(=O)O[C@@](CC=C(C)C)(C(=O)[C@H]1C(=O)C(C)C)C2=O | Not Active | – |
| CC(C)=CC[C@H]1C[C@@]2(CC=C(C)C)C(=O)O[C@](CC=C(C)C)(C2=O)C(=O)[C@]23C(=O)c4ccccc4C(C)(C)[C@H]2CC[C@]13C | Not Active | – |
| CC(C)=CCC[C@]1(C)[C@@H](CC=C(C)C)C[C@H](CC=C(C)C)C(=O)[C@](O)(CC=C(C)C)C(=O)[C@H]1C(=O)C(C)C | Not Active | – |
| CCC(C)C(=O)[C@@H]1C(=O)[C@]2(CC=C(C)C)OC(=O)[C@](CC=C(C)C)(C[C@H](CC=C(C)C)[C@@]1(C)C/C=C/C(C)(C)O)C2=O (some centres not stated) | – | 7.1 µM |
| CCC(C)C(=O)[C@@H]1C(=O)[C@]2(CC=C(C)C)OC(=O)[C@](CC=C(C)C)(C[C@H](CC=C(C)C)[C@@]1(C)C/C=C/C(C)(C)OO)C2=O (some centres not stated) | Not Active | – |
| CC(C)=CCC1=C2OC(C)(C)[C@H](O)[C@H]3/C=C(/C)[C@@H](CC=C(C)C)C[C@](CC=C(C)C)(C1=O)C(=O)[C@]23C(=O)c1ccccc1 | Not Active | – |
| CC(C)=CC[C@H]1C[C@@]2(CC=C(C)C)C(=O)C3(CC=C(C)C)CC14C[C@@H](C=C(C)C)C(C(=O)c1ccccc1)(C3=O)C42O | Not Active | – |
| CC(C)=CC[C@H]1C[C@@]2(CC=C(C)C)C(=O)O[C@@](CC=C(C)C)(C(=O)[C@@H](C(=O)C(C)C)[C@]1(C)C/C=C/C(C)(C)OO)C2=O | Not Active | – |
| CC(C)=CCC/C(C)=C/C[C@]12C[C@@H](CC=C(C)C)C(C)(C)[C@H](C(=O)C(C)C)C(=O)[C@](CC=C(C)C)(OC1=O)C2=O | Not Active | – |
| CC(C)=CC[C@H]1C[C@@]2(CC=C(C)C)C(=O)O[C@@](CC=C(C)C)(C(=O)[C@@H](C(=O)C(C)C)[C@]1(C)C/C=C/C(C)(C)O)C2=O | – | 9.6 µM |
| CCC(C)C(=O)[C@@H]1C(=O)[C@]2(CC=C(C)C)OC(=O)[C@](C/C=C(\C)CCC=C(C)C)(C[C@@H](CC=C(C)C)C1(C)C)C2=O (some centres not stated) | Not Active | – |
| CC(C)=CC[C@H]1C[C@@]23C[C@H]4C(C)(C)c5ccccc5C(=O)[C@]45C(=O)C(CC=C(C)C)(C[C@@]1(C/C=C/C(C)(C)O)C25O)C3=O | Not Active | – |

— ChEMBL document CHEMBL3758147, “1,9-seco-Bicyclic Polyprenylated Acylphloroglucinols from Hypericum uralum” (J Nat Prod, 2015)
